# Test results taken from patent US20250092065A1, “2-(INDAZOL-5-YL)-6-(PIPERIDIN-4-YL)-1,7-NAPHTHYRIDINE DERIVATIVES AND RELATED COMPOUNDS AS MODULATORS FOR SPLICING NUCLEIC ACIDS AND FOR THE TREATMENT OF PROLIFERATIVE DISEASES” (REMIX THERAPEUTICS INC., priority 2022, published 2025).
# Read-outs that look alike come from different tables or passages of the source.
# What was measured:
# Assay type in all cases: cell-based, human
# HTT mRNA = assay: RT-qPCR splicing assay, HTT mRNA canonical (CJ) and alternative (AJ) junction; conditions: Homo sapiens; for AC50: HTT alternative junction mRNA, read-out: HTT AJ (increase in AJ mRNA, AC50)
# How it was run: (§1)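 Both isoforms, CJ and AJ, read by qPCR from crude lysates of treated A673 or K562 cells; 24 h, 37 °C, maximum 10 uM. Normalization: housekeeper ΔCt, then DMSO ΔΔCt.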
# MYB mRNA = assay: RT-qPCR splicing assay, MYB mRNA canonical (CJ) and alternative (AJ) junction; conditions: Homo sapiens; for AC50: MYB alternative junction mRNA, read-out: MYB AJ (increase in AJ mRNA, AC50)
# How it was run: as §1
# SMN2 mRNA = assay: RT-qPCR splicing assay, SMN2 mRNA; conditions: Homo sapiens, canonical junction qPCR panel, Table 4; read-out: SMN2 IC50 (decrease in CJ mRNA levels)
# How it was run: as §1
# [1] = HTT canonical junction mRNA, RT-qPCR, read-out: HTT CJ (decrease in CJ mRNA levels, IC50)
# [2] = canonical junction qPCR panel, Table 4, read-out: HTT IC50 (decrease in CJ mRNA levels)
# [3] = MYB canonical junction mRNA, RT-qPCR, read-out: MYB CJ (decrease in CJ mRNA levels, IC50)
# [4] = canonical junction qPCR panel, Table 4, read-out: MYB IC50 (decrease in CJ mRNA levels)
Compound,AC50 (HTT mRNA; RT-qPCR),IC50 (HTT mRNA; [1]),IC50 (HTT mRNA; [2]),AC50 (MYB mRNA; RT-qPCR),IC50 (MYB mRNA; [3]),IC50 (MYB mRNA; [4]),IC50 (SMN2 mRNA)
Cc1nc2cc(O)c(-c3ccc4nc(N5CCN[C@H](C6CC6)C5)ccc4n3)cc2o1 [Compound 421],100 to 1000 nM,100 to 1000 nM,100 to 1000 nM,100 to 1000 nM,100 to 1000 nM,100 to 1000 nM,100 to 1000 nM
Cc1nc2cc(O)c(-c3ccc4nc(N5CCN[C@@H](C(C)C)C5)ccc4n3)cc2o1 [Compound 422],100 to 1000 nM,100 to 1000 nM,100 to 1000 nM,100 to 1000 nM,100 to 1000 nM,100 to 1000 nM,< 100 nM
Cc1nc2cc(O)c(-c3ccc4nc(N5CCC(N)CC5)ccc4n3)cc2o1 [Compound 424],1000 to 10000 nM,1000 to 10000 nM,1000 to 10000 nM,1000 to 10000 nM,1000 to 10000 nM,1000 to 10000 nM,< 100 nM
CNC1CCN(c2ccc3nc(-c4cc5oc(C)nc5cc4O)ccc3n2)CC1 [Compound 425],1000 to 10000 nM,1000 to 10000 nM,1000 to 10000 nM,1000 to 10000 nM,1000 to 10000 nM,1000 to 10000 nM,100 to 1000 nM
"Cc1nc2c(C)c(O)c(-c3ccc4nc(N5CC[C@H](NC6CC6)C5)ncc4n3)cc2o1 [Compound 433, 6-{2-[(3S)-3-(cyclopropylamino)pyrrolidin-1-yl]pyrido[3,2-d]pyrimidin-6-yl}-2,4-dimethyl-1,3-benzoxazol-5-ol]",< 100 nM,< 100 nM,< 100 nM,100 to 1000 nM,100 to 1000 nM,100 to 1000 nM,< 100 nM
"Cc1nc2cc(O)c(-c3ccc4nc(N5CC[C@H](NC6CC6)C5)ncc4n3)cc2o1 [Compound 435, 6-{2-[(3S)-3-(cyclopropylamino)pyrrolidin-1-yl]pyrido[3,2-d]pyrimidin-6-yl}-2-methyl-1,3-benzoxazol-5-ol]",100 to 1000 nM,100 to 1000 nM,100 to 1000 nM,100 to 1000 nM,100 to 1000 nM,100 to 1000 nM,< 100 nM
Cc1nc2c(C)c(O)c(-c3ccc4nc(N5CC[C@@H](NC(C)(C)C)C5)ncc4n3)cc2o1 [Compound 436],< 100 nM,< 100 nM,< 100 nM,< 100 nM,< 100 nM,< 100 nM,< 100 nM
Cc1nc2c(C)c(O)c(-c3ccc4nc(N5CC[C@H](NC(C)(C)C)C5)ncc4n3)cc2o1 [Compound 437],< 100 nM,< 100 nM,< 100 nM,100 to 1000 nM,100 to 1000 nM,100 to 1000 nM,100 to 1000 nM
"Cc1c(O)c(-c2ccc3nc(N4CC[C@@H](NC5CC5)C4)ncc3n2)cc2cn(C)nc12 [Compound 438, 5-{2-[(3R)-3-(cyclopropylamino)pyrrolidin-1-yl]pyrido[3,2-d]pyrimidin-6-yl}-2,7-dimethylindazol-6-ol]",< 100 nM,< 100 nM,< 100 nM,< 100 nM,100 to 1000 nM,100 to 1000 nM,< 100 nM
"Cc1c(O)c(-c2ccc3nc(N4CC[C@H](NC5CC5)C4)ncc3n2)cc2cn(C)nc12 [Compound 439, 5-{2-[(3S)-3-(cyclopropylamino)pyrrolidin-1-yl]pyrido[3,2-d]pyrimidin-6-yl}-2,7-dimethylindazol-6-ol]",< 100 nM,< 100 nM,< 100 nM,100 to 1000 nM,100 to 1000 nM,100 to 1000 nM,< 100 nM
"Cc1nc2c(C)c(O)c(-c3ccc4cc(N5CC[C@@H](NC6CC6)C5)ncc4n3)cc2o1 [Compound 440, 6-{6-[(3R)-3-(cyclopropylamino)pyrrolidin-1-yl]-1,7-naphthyridin-2-yl}-2,4-dimethyl-1,3-benzoxazol-5-ol]",100 to 1000 nM,< 100 nM,< 100 nM,100 to 1000 nM,100 to 1000 nM,100 to 1000 nM,< 100 nM
"Cc1nc2c(C)c(O)c(-c3ccc4cc(N5CC[C@H](NC6CC6)C5)ncc4n3)cc2o1 [Compound 441, 6-{6-[(3S)-3-(cyclopropylamino)pyrrolidin-1-yl]-1,7-naphthyridin-2-yl}-2,4-dimethyl-1,3-benzoxazol-5-ol]",100 to 1000 nM,< 100 nM,< 100 nM,100 to 1000 nM,100 to 1000 nM,100 to 1000 nM,< 100 nM
"Cn1cc2cc(-c3ccc4nc(C5CCNC6(CC6)C5)ncc4n3)c(O)cc2n1 (stereo not shown) [Compound 448, 5-(2-{4-azaspiro[2.5]octan-7-yl}pyrido[3,2-d]pyrimidin-6-yl)-2-methylindazol-6-ol]",1000 to 10000 nM,100 to 1000 nM,100 to 1000 nM,1000 to 10000 nM,100 to 1000 nM,100 to 1000 nM,< 100 nM
